{"source": "patent US10154988B2", "about": "“Methods and compositions for treating schizophrenia” (The Johns Hopkins University, priority 2012, dated 2018)", "system": "aged-impaired (AI) rats", "assay": "eight-arm Radial Arm Maze task, one-hour delay (levetiracetam, valproate, combination)", "assay_type": "in vivo, rat", "details": "for average no. of errors ± SEM in retention test: one-hour delay, vehicle 2.00±0.42; for reducing the number of errors in the radial arm maze: levetiracetam on its own", "protocol": "The effects of levetiracetam on the spatial memory retention of aged-impaired (AI) rats are assessed in a Radial Arm Maze (RAM) behavioral task using vehicle control and five different dosage levels of levetiracetam (1.25 mg/kg/day, 2.5 mg/kg/day, 5 mg/kg/day, 10 mg/kg/day and 20 mg/kg/day). RAM behavioral tasks are preformed on ten AI rats. All six treatment conditions are tested on all ten rats, as described above for the MWM test. The RAM apparatus used consists of eight equidistantly-spaced arms. An elevated maze arm (7 cm width×75 cm length) projects from each facet of an octagonal center platform (30 cm diameter, 51.5 cm height). Clear side walls on the arms are 10 cm high and are angled at 65° to form a trough. A food well (4 cm diameter, 2 cm deep) is located at the distal end of each arm. Froot Loops™ (Kellogg Company) are used as rewards. Blocks constructed of Plexiglas™ (30 cm height×12 cm width) can be positioned to prevent entry to any arm. Numerous extra maze cues surrounding the apparatus are also provided. The AI rats are initially subjected to a pre-training test (Chappell et al. Neuropharmacology 37: 481-487, 1998). The pre-training test consists of a habituation phase (4 days), a training phase on the standard win-shift task (18 days) and another training phase (14 days) in which a brief delay is imposed between presentation of a subset of arms designated by the experimenter (e.g., 5 arms available and 3 arms blocked) and completion of the eight-arm win-shift task (i.e., with all eight arms available). In the habituation phase, rats are familiarized to the maze for an 8-minute session on four consecutive days. In each of these sessions food rewards are scattered on the RAM, initially on the center platform and arms and then progressively confined to the arms. After this habituation phase, a standard training protocol is used, in which a food pellet is located at the end of each arm. Rats receive one trial each day for 18 days. Each daily trial terminates when all eight food pellets have been obtained or when either 16 choices are made or 15 minutes had elapsed. After completion of this training phase, a second training phase is carried out in which the memory demand is increased by imposing a brief delay during the trial. At the beginning of each trial, three arms of the eight-arm maze are blocked. Rats are allowed to obtain food on the five arms to which access is permitted during this initial ‘information phase’ of the trial. Rats are then removed from the maze for 60 seconds, during which time the barriers on the maze are removed, thus allowing access to all eight arms. Rats are then placed back onto the center platform and allowed to obtain the remaining food rewards during this ‘retention test’ phase of the trial. The identity and configuration of the blocked arms varies across trials. The number of “errors” the AI rats make during the retention test phase is tracked. An error occurs in the trial if the rats enter an arm from which food had already been retrieved in the pre-delay component of the trial, or if it re-visits an arm in the post-delay session that has already been visited. After completion of the pre-training test, rats are subjected to trials with more extended delay intervals, i.e., a one-hour delay, between the information phase (presentation with some blocked arms) and the retention test (presentation of all arms). During the delay interval, rats remain off to the side of the maze in the testing room, on carts in their individual home cages. AI rats are pretreated 30-40 minutes before daily trials with a one-time shot of the following six conditions: 1) vehicle control (0.9% saline solution); 2) levetiracetam (1.25 mg/kg/day); 3) levetiracetam (2.5 mg/kg/day); 4) levetiracetam (5 mg/kg/day); 5) levetiracetam (10 mg/kg/day); 6) levetiracetam (20 mg/kg/day); […] Injections are given every other day with intervening washout days. Each AI rat is treated with all six conditions within 23 days of testing. […]"}
{"smiles": "CC[C@@H](C(N)=O)N1CCCC1=O", "note": "[levetiracetam, (2S)-2-(2-oxopyrrolidin-1-yl) butanamide]", "values": [{"measurement": "average no. of errors ± SEM in retention test", "setting": "5 mg/kg/day i.p., t(9)=2.18, p=0.057", "value": "0.75±0.32"}, {"measurement": "average no. of errors ± SEM in retention test", "setting": "10 mg/kg/day i.p., t(9)=2.37, p=0.042", "value": "0.80±0.27"}, {"measurement": "performance of AI rats in the radial maze task", "setting": "levetiracetam 20 mg/kg", "value": "fails to improve the performance"}, {"measurement": "reducing the number of errors in the radial arm maze", "setting": "1.25 mg/kg i.p.", "value": "not at 1.25 mg/kg or 2.5 mg/kg"}, {"measurement": "reducing the number of errors in the radial arm maze", "setting": "2.5 mg/kg i.p.", "value": "not at 1.25 mg/kg or 2.5 mg/kg"}, {"measurement": "reducing the number of errors in the radial arm maze", "setting": "5-10 mg/kg i.p.", "value": "effective in reducing the number of errors"}]}
